Laboratory results as given in ChEMBL document CHEMBL3421602, “Small molecule discoidin domain receptor kinase inhibitors and potential medical applications” (J Med Chem, 2015).
Each block holds one compound with its values, some of them ahead of it. Numbered stars: 1 amine (or outer) side, 2 acyl side, 3 side chain; on linkers, the order of the positions; unused ones are H or OH. Bridge positions count the residues as written; N and C are the ends. Square brackets hold non-standard residues; d marks the D form. Peptide text beside a SMILES is read from it. I, II: the chains in the order shown. Actinocin(9to1) = Cc1c2oc3c(C)ccc(C(=O)[*:1])c3nc-2c(C(=O)[*:2])c(N)c1=O; NMeV = CN[C@H](C(=O)O)C(C)C; Sar = CNCC(=O)O

Legend:
[1] = molecular target: T1, Discoidin domain-containing receptor 2 (Homo sapiens, UniProt Q16832); assay: Inhibition of recombinant activated DDR2 tyrosine kinase domain (unknown origin) using histone H2B peptide substrate and [32P]ATP incubated for 15 mins
T1 sequence (Q16832 whole entry): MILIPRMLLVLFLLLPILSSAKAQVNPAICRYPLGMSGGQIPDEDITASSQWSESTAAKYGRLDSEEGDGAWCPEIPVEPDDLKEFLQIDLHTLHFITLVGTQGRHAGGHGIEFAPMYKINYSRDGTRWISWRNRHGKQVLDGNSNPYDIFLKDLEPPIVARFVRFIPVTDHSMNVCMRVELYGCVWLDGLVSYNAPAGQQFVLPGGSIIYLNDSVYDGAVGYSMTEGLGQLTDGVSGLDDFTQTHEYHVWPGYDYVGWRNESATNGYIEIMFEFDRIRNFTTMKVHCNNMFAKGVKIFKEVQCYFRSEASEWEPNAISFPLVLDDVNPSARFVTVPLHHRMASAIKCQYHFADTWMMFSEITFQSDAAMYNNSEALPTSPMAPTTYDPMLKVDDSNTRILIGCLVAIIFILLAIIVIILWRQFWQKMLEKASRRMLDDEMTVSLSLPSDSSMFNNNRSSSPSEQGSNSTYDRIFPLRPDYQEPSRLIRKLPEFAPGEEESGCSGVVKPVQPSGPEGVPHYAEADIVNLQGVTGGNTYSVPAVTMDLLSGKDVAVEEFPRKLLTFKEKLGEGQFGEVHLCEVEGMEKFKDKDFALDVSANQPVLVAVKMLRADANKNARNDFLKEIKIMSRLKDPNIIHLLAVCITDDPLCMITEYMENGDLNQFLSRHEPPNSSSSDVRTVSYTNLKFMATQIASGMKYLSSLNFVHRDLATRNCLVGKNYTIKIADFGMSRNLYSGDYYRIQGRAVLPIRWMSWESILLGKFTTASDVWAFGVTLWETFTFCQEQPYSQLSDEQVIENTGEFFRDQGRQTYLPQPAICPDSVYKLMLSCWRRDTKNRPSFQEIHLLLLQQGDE

[2] = molecular target: T1, Discoidin domain-containing receptor 2; assay: Inhibition of recombinant non-activated DDR2 tyrosine kinase domain (unknown origin) using histone H2B peptide substrate and [32P]ATP incubated for 15 mins
[3] = molecular target: T1, Discoidin domain-containing receptor 2; assay: Binding affinity to DDR2 (unknown origin) by active-site dependent competition binding assay
[4] = molecular target: T2, Epithelial discoidin domain-containing receptor 1 (Homo sapiens, UniProt Q08345); assay: Inhibition of human DDR1 kinase domain (601 to 913 residues) expressed in Sf9 cells by enzymatic kinase assay
[5] = molecular target: T2, Epithelial discoidin domain-containing receptor 1; assay: Inhibition of human DDR1 in doxycycline-stimulated human U2OS cells assessed as inhibition of collagen-1-induced autophosphorylation incubated for 1 hr; format: cell-based
U2OS = assay: Inhibition of cell proliferation of human U2OS cells over-expressing DDR1
[6] = molecular target: T1, Discoidin domain-containing receptor 2; assay: Inhibition of human DDR2 expressed in HEK293 cells assessed as reduction in collagen-2-induced DDR2 phosphorylation; format: cell-based
[7] = molecular target: T1, Discoidin domain-containing receptor 2; assay: Inhibition of human DDR2 expressed in HEK293 cells assessed as reduction in collagen-1-induced DDR2 tyrosine phosphorylation pre-incubated for 30 mins by immunoblotting method; format: cell-based

T2 sequence (Q08345 whole entry, the tested form may be a part): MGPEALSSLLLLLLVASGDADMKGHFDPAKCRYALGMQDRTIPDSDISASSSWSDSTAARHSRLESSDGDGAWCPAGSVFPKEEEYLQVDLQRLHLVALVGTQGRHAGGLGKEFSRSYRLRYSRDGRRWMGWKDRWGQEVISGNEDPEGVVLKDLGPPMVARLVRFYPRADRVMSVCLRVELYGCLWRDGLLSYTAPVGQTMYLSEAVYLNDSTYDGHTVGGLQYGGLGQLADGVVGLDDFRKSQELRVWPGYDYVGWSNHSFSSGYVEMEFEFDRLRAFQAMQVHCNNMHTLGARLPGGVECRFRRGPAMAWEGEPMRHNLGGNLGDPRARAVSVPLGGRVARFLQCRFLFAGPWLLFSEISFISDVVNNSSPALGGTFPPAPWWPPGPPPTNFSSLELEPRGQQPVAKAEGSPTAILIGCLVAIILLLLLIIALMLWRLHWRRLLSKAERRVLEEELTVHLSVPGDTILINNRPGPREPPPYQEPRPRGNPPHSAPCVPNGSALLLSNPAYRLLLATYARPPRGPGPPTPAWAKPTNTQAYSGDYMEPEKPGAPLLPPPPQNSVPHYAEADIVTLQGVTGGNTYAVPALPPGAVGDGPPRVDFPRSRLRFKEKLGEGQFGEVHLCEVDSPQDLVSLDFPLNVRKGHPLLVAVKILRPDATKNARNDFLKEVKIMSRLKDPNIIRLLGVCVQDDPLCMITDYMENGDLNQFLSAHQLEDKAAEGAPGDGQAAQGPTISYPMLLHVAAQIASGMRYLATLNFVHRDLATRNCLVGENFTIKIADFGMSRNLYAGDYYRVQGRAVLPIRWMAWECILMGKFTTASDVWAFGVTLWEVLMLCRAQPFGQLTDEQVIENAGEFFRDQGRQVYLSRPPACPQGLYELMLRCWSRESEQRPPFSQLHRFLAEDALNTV

SMILES: Oc1cccc(Nc2ccnc3cc(-c4cccc(CN5CCOCC5)c4)sc23)c1
- IC50 [1]: 6 nM
- IC50 [2]: 145 nM

SMILES: CCc1ccc(C(=O)Nc2cc(CN3CCN(C)CC3)cc(C(F)(F)F)c2)cc1C#Cc1cnc2ccnn2c1
- Kd [3]: 0.6 nM

SMILES: CCS(=O)(=O)c1ccc(Cl)cc1CNC(=O)c1ccc(CN2CCN(C)CC2)c(C(F)(F)F)c1
- IC50 (U2OS): 440 nM

SMILES: Cn1cc(C(F)(F)F)cc(NC(=O)NCc2ccc(Oc3ccnc4c3CNC(=O)N4)cc2)c1=O
- IC50 [6]: 15 nM

The remaining lines, values ahead:

- IC50 [4]: 47 nM
- IC50 [5]: 9 nM
SMILES: CCN1CCN(Cc2ccc(C(=O)Nc3ccc(C)c(NCc4cnc5[nH]ccc5c4OC)c3)cc2C(F)(F)F)CC1

- IC50 [6]: 30 nM
SMILES: CNC(=O)c1cc(Oc2ccc(CNC(=O)Nc3cc(Cl)ccc3OC)cc2C)ccn1

- IC50 [7]: 9000 nM
SMILES: Cc1c2oc3c(C)ccc(C(=O)N[C@@H]4C(=O)N[C@H](C(C)C)C(=O)N5CCC[C@H]5C(=O)N(C)CC(=O)N(C)[C@@H](C(C)C)C(=O)O[C@@H]4C)c3nc-2c(C(=O)N[C@@H]2C(=O)N[C@H](C(C)C)C(=O)N3CCC[C@H]3C(=O)N(C)CC(=O)N(C)[C@@H](C(C)C)C(=O)O[C@@H]2C)c(N)c1=O [DACTINOMYCIN] (I: T[dV]P[Sar][NMeV] / II: T[dV]P[Sar][NMeV]; ester I:1-I:C, II:1-II:C; linker I:N-II:N via Actinocin(9to1))
